For this experiment, the system named is recombinant NL4-3 virus (Renilla luciferase) in MT-2 cells. The experiment can be described thus: HIV cell culture assay (antiviral activity, luciferase readout in infected MT-2 cells). The experiment is classed as cell-based. The conditions noted are these: Renilla. The gist of the method:
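EC50 derived via median-effect equation from luciferase activity in MT-2 cells after 4–5 day infection, compound serially diluted. Virus: recombinant NL4-3 with Renilla luciferase replacing part of nef, made in 293T cells.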

[1] abbreviates: NL43, read-out: Activity, antiviral activity class, recombinant NL4-3 Renilla luciferase virus in MT-2 cells.
[2] abbreviates: NL43, recombinant NL4-3 Renilla luciferase virus in MT-2 cells.

Where two headings read alike, the source gives them in different places. Where only a bound is given, the exact number is not on record here.

For 23 molecules, EC50 results are on record in patent US10035760B2, “Inhibitors of human immunodeficiency virus replication” (priority 2013, dated 2018).

On to `Cc1ccccc1S(=O)(=O)NC(=O)N[C@@H](Cc1ccccc1)C(=O)N1CCC1` [Example 188, (S)—N-((1-(azetidin-1-yl)-1-oxo-3-phenylpropan-2-yl)carbamoyl)-2-methylbenzenesulfonamide], for which the EC50 under setting [1] lay within 10000 to 100000 nM and the EC50 under setting [2] stood at 27500 nM.

For `Cc1ccccc1S(=O)(=O)NC(=O)N[C@@H](Cc1ccccc1)C(=O)N1CCCC1c1cccnc1` (stereo partly drawn) [Example 189, 2-methyl-N-(((2S)-1-oxo-3-phenyl-1-(2-(pyridin-3-yl)pyrrolidin-1-yl)propan-2-yl)carbamoyl)benzenesulfonamide], under setting [1], the EC50 fell in the range of 1000 to 10000 nM.

On to `COc1ccc(N(C)C(=O)[C@H](Cc2ccccn2)NC(=O)NS(=O)(=O)c2ccccc2C)cc1` [Example 192, (S)—N-(4-methoxyphenyl)-N-methyl-3-(pyridin-2-yl)-2-(3-(o-tolylsulfonyl)ureido)propanamide], for which the EC50 under setting [1] lay in the range of 10000 to 100000 nM.

With `COc1ccc(N(C)C(=O)[C@H](Cn2cncn2)NC(=O)NS(=O)(=O)c2ccccc2C)cc1` [Example 193, (S)—N-(4-methoxyphenyl)-N-methyl-2-(3-(o-tolylsulfonyl)ureido)-3-(1H-1,2,4-triazol-1-yl)propanamide], the EC50 under setting [2] is greater than 100000 nM.

Take `COc1ccc(N(C)C(=O)[C@H](Cc2cccnc2)NC(=O)NS(=O)(=O)c2ccccc2C)cc1` [Example 194, (S)—N-(4-methoxyphenyl)-N-methyl-3-(pyridin-3-yl)-2-(3-(o-tolylsulfonyl)ureido)propanamide]: under setting [1], the EC50 lay within 10000 to 100000 nM.

For `COc1ccc(N(C)C(=O)[C@H](CC2CCCCC2)NC(=O)NS(=O)(=O)c2ccccc2C)cc1` [Example 195, (S)-3-cyclohexyl-N-(4-methoxyphenyl)-N-methyl-2-(3-(o-tolylsulfonyl)ureido)propanamide], the EC50 under setting [1] was 1000 to 10000 nM.

Take `COc1ccc(N(C)C(=O)[C@H](CC2CCCC2)NC(=O)NS(=O)(=O)c2ccccc2C)cc1` [Example 196, (S)-3-cyclopentyl-N-(4-methoxyphenyl)-N-methyl-2-(3-(o-tolylsulfonyl)ureido)propanamide]: the EC50 under setting [1] lay in the range of 10000 to 100000 nM.

Turning to `COc1ccc(N(C)C(=O)[C@@H](NC(=O)NS(=O)(=O)c2ccccc2C)[C@@H](C)c2ccccc2)cc1` [Example 197, (2S,3S)—N-(4-methoxyphenyl)-N-methyl-3-phenyl-2-(3-(o-tolylsulfonyl)ureido)butanamide], the EC50 by setting is: under setting [1], 10000 to 100000 nM; under setting [2], 11500 nM.

As to `COc1ccc(N(C)C(=O)[C@H](Cc2cccs2)NC(=O)NS(=O)(=O)c2ccccc2C)cc1` [Example 198, (S)—N-(4-methoxyphenyl)-N-methyl-3-(thiophen-2-yl)-2-(3-(o-tolylsulfonyl)ureido)propanamide], the EC50 runs as follows: under setting [1], 100 to 1000 nM; under setting [2], 270 nM.

On to `COc1ccc(N(C)C(=O)[C@H](Cc2ccncc2)NC(=O)NS(=O)(=O)c2ccccc2C)cc1` [Example 199, (S)—N-(4-methoxyphenyl)-N-methyl-3-(pyridin-4-yl)-2-(3-(o-tolylsulfonyl)ureido)propanamide], for which, under setting [1], the EC50 lay within 10000 to 100000 nM.

As for `COc1ccc(N(CC(F)(F)F)C(=O)[C@H](Cc2ccccc2)NC(=O)NS(=O)(=O)c2ccccc2C)cc1` [Example 200, (S)—N-(4-methoxyphenyl)-3-phenyl-2-(3-(o-tolylsulfonyl)ureido)-N-(2,2,2-trifluoroethyl)propanamide], the EC50 under setting [1] is 100 to 1000 nM.

Take `CCN(C(=O)[C@H](Cc1ccccc1)NC(=O)NS(=O)(=O)c1ccccc1Br)c1ccc(OC)cc1` [Example 201, (S)-2-(3-((2-bromophenyl)sulfonyl)ureido)-N-ethyl-N-(4-methoxyphenyl)-3-phenylpropanamide]: the EC50 under setting [1] is less than 100 nM.

Consider `CCN(C(=O)[C@H](Cc1ccccc1)NC(=O)NS(=O)(=O)c1ccc2c(ccn2CC)c1)c1ccc(OC)cc1` [Example 203, (S)—N-ethyl-2-(3-((1-ethyl-1H-indol-5-yl)sulfonyl)ureido)-N-(4-methoxyphenyl)-3-phenylpropanamide], for which the EC50 under setting [1] was 100 to 1000 nM.

Regarding `COc1ccc(N(C)C(=O)[C@H](Cc2cc(F)cc(F)c2)NC(=O)NS(=O)(=O)c2ccccc2F)cc1` [Example 204, (S)-3-(3,5-difluorophenyl)-2-(3-((2-fluorophenyl)sulfonyl)ureido)-N-(4-methoxyphenyl)-N-methylpropanamide], under setting [1], the EC50 lay in the range of 100 to 1000 nM.

For `COc1ccc(N(C)C(=O)[C@H](Cc2cc(F)cc(F)c2)NC(=O)NS(=O)(=O)c2ccccc2C)cc1` [Example 205, (S)-3-(3,5-difluorophenyl)-N-(4-methoxyphenyl)-N-methyl-2-(3-(o-tolylsulfonyl)ureido)propanamide], the EC50 under setting [1] was 100 to 1000 nM and the EC50 under setting [2] was found to be 110 nM.

Take `CN(C(=O)[C@H](Cc1ccccc1)NC(=O)NS(=O)(=O)c1ccccc1Cl)c1ccc2c(c1)CCC2` [Example 206, (S)-2-(3-((2-chlorophenyl)sulfonyl)ureido)-N-(2,3-dihydro-1H-inden-5-yl)-N-methyl-3-phenylpropanamide]: the EC50 under setting [1] is less than 100 nM.

With `Cc1ccccc1S(=O)(=O)NC(=O)N[C@@H](Cc1ccccc1)C(=O)N(C)c1ccc2c(c1)CCC2` [Example 207, (S)—N-(2,3-dihydro-1H-inden-5-yl)-N-methyl-3-phenyl-2-(3-(o-tolylsulfonyl)ureido)propanamide], the EC50 under setting [1] is less than 100 nM.

In the case of `CN(C(=O)[C@H](Cc1ccccc1)NC(=O)NS(=O)(=O)c1ccccc1)c1ccc2c(c1)CCC2` [Example 208, (S)—N-(2,3-dihydro-1H-inden-5-yl)-N-methyl-3-phenyl-2-(3-(phenylsulfonyl)ureido)propanamide], under setting [1], the EC50 was 100 to 1000 nM.

As to `Cc1ccccc1S(=O)(=O)NC(=O)N[C@@H](CCc1ccccc1)C(=O)N(C)c1ccc2c(c1)OCO2` [Example 209, (S)—N-(benzo[d][1,3]dioxol-5-yl)-N-methyl-4-phenyl-2-(3-(o-tolylsulfonyl)ureido)butanamide], the EC50 under setting [1] lay within 10000 to 100000 nM.

On to `Cc1ccccc1S(=O)(=O)NC(=O)N[C@H](CCc1ccccc1)C(=O)N(C)c1ccc2c(c1)OCO2` [Example 210, (R)—N-(benzo[d][1,3]dioxol-5-yl)-N-methyl-4-phenyl-2-(3-(o-tolylsulfonyl)ureido)butanamide], for which the EC50 under setting [1] was 10000 to 100000 nM.

Turning to `C=Cc1cccc(C[C@H](NC(=O)NS(=O)(=O)c2ccccc2C=C)C(=O)N(C)c2ccc(OC)cc2)c1` [Example 212, (S)—N-(4-methoxyphenyl)-N-methyl-3-(3-vinylphenyl)-2-(3-((2-vinylphenyl)sulfonyl)ureido)propanamide], the EC50 is less than 100 nM under setting [1] and 58 nM under setting [2].

For the molecule `C=CCCOc1cccc(C[C@H](NC(=O)NS(=O)(=O)c2ccccc2C=C)C(=O)N(C)c2ccc(OC)cc2)c1` [Example 213, (S)-3-(3-(but-3-en-1-yloxy)phenyl)-N-(4-methoxyphenyl)-N-methyl-2-(3-((2-vinylphenyl)sulfonyl)ureido)propanamide], the EC50 was 1000 to 10000 nM under setting [1] and 5070 nM under setting [2].

Consider `CCN(C(=O)[C@H](Cc1ccccc1)NC(=O)NS(=O)(=O)c1cccc(-c2ccnn2CC(C)C)c1C)c1ccc(OC)cc1` [Example 214, (S)—N-ethyl-2-(3-((3-(1-isobutyl-1H-pyrazol-5-yl)-2-methylphenyl)sulfonyl)ureido)-N-(4-methoxyphenyl)-3-phenylpropanamide], for which the EC50 under setting [1] is 100 to 1000 nM and the EC50 under setting [2] came to 870 nM.
